Laboratory results reported in patent publication US4025533A, “5-Bromo-5-nitro-2-alkylsubstituted-1,3-dioxane” (Eli Lilly and Company, priority 1976, dated 1977).
Converted amounts (≈) assume the structure as drawn.

How the values were obtained:
[1] = prior art; cited from earlier work
[2] = tested on: Escherichia coli; experiment: agar plate system (Table II); assay type: cell-based; conditions: antibiotic medium 1, 72 hours at 30° C., read-out: Minimum Inhibitory Concentration
Protocol: (§1) The antimicrobial activities of Compounds A, B, C, D, E and F were also determined in an agar plate system. The compounds were added to melted and cooled (50° C.) agar in twofold concentration increments from 50 mcg per ml of agar to 1.56 mcg per ml of agar. Antibiotic medium 1 [CFR 436.102(1)] was used for testing of Pseudomonas aeruginosa, Staphylococcus aureus, Escherichia coli, and Streptococcus faecalis, but antibiotic medium 22 [CFR 436.102(22)] was used for testing of Candida albicans and Aspergillus niger. Organism suspensions containing 10^6 organisms per ml were used as stock suspensions. Sterile cotton swabs were dipped in the suspensions and then streaked across the solidified agar. The figures shown in Table II were the lowest concentrations at which no growth occurred after 72 hours at 30° C. These values were interpreted as the minimum inhibitory concentration (MIC).

[3] = tested on: Aspergillus niger; experiment: agar plate system (Table II); assay type: cell-based; conditions: antibiotic medium 22, 72 hours at 30° C., read-out: Minimum Inhibitory Concentration
Protocol: as §1

[4] = tested on: Streptococcus faecalis; experiment: agar plate system (Table II); assay type: cell-based; conditions: Enterococcus faecalis, antibiotic medium 1, 72 hours at 30° C., read-out: Minimum Inhibitory Concentration
Protocol: as §1

[5] = tested on: Pseudomonas aeruginosa; experiment: agar plate system (Table II); assay type: cell-based; conditions: antibiotic medium 1, 72 hours at 30° C., read-out: Minimum Inhibitory Concentration
Protocol: as §1

[6] = tested on: Staphylococcus aureus; experiment: agar plate system (Table II); assay type: cell-based; conditions: antibiotic medium 1, 72 hours at 30° C., read-out: Minimum Inhibitory Concentration
Protocol: as §1

[7] = tested on: Candida albicans; experiment: agar plate system (Table II); assay type: cell-based; conditions: antibiotic medium 22, 72 hours at 30° C., read-out: Minimum Inhibitory Concentration
Protocol: as §1

[8] = tested on: Escherichia coli; experiment: conventional tube dilution test (Table I); assay type: cell-based; conditions: 48 h, antibiotic Number 3 medium, two days at 37° C., read-out: Minimum Inhibitory Concentration
Protocol: (§2) The in vitro antimicrobial activities of Compounds A, B and C, 5-bromo-2-ethyl-5-nitro-1,3-dioxane (Compound D), 5-bromo-5-nitro-2-n-propyl-1,3-dioxane (Compound E), and 5-bromo-2-isopropyl-5-nitro-1,3-dioxane (Compound F) were determined concurrently against Pseudomonas aeruginosa, Staphylococcus aureus, Escherichia coli, and Streptococcus faecalis in a conventional tube dilution test. The medium used was antibiotic Number 3 [CFR 436.102(3)] and the concentration of organisms was 10^4 organisms per ml of medium, with each tube being inoculated with 0.1 ml of inoculum. The figures shown in Table I are the lowest concentrations in mcg of active compound/ml of medium where no growth occurred in the medium after two days' incubation at 37° C.

[9] = tested on: Streptococcus faecalis; experiment: conventional tube dilution test (Table I); assay type: cell-based; conditions: Enterococcus faecalis, 48 h, antibiotic Number 3 medium, two days at 37° C., read-out: Minimum Inhibitory Concentration
Protocol: as §2

[10] = tested on: Pseudomonas aeruginosa; experiment: conventional tube dilution test (Table I); assay type: cell-based; conditions: 48 h, antibiotic Number 3 medium, two days at 37° C., read-out: Minimum Inhibitory Concentration
Protocol: as §2

[11] = tested on: Staphylococcus aureus; experiment: conventional tube dilution test (Table I); assay type: cell-based; conditions: 48 h, antibiotic Number 3 medium, two days at 37° C., read-out: Minimum Inhibitory Concentration
Protocol: as §2

[12] = tested on: Propionibacterium acnes; experiment: conventional tube dilution test, anaerobic; assay type: cell-based; conditions: Cutibacterium acnes, medium pH 6.9, read-out: minimum inhibitory concentration
Protocol: For example, 5-bromo-2-methyl-5-nitro-1,3-dioxane (Compound C) was tested against Propionibacterium acnes (formerly called Corynebacterium acnes) in a conventional tube dilution test. A simultaneous test was run utilizing 2-bromo-2-nitropropane,1,3-diol (Compound A) and 5-bromo-5-nitro-1,3-dioxane (Compound B) as the antimicrobials.
The test against Propionibacterium acnes were run anaerobically in the following medium:
(§3) Distilled water q.s. -- 1000 ml
The pH of the medium was 6.9

[13] = tested on: Microsporum gypseum; experiment: In Vitro Antifungal Activity, agar plates (Table III); assay type: cell-based; conditions: Nannizzia gypsea, 72 h, three days at 25° C., pH 5.7, read-out: Minimum Inhibitory Concentration
Protocol: (§4) Compounds A, B, and C were tested further to determine antifungal activity. The compounds were added to melted and cooled (50° C.) agar to obtain concentrations of 100, 50, 25, 12.5, 6.25 and 0.0 mcg per ml of agar. After the agar solidified, sterile cotton swabs were dipped in stock suspensions of the organisms (10^6 organisms per ml of physiological saline) and then streaked across the agar. After three days' incubation at 25° C., concentrations which prevented growth were recorded as the minimal inhibitory concentration. The composition of the medium used in this study was as follows:
(§5) Calcium carbonate -- 0.5 g
(§6) V-8 juice filtrate -- 200.0 ml
as §3
(§7) The pH was adjusted to 5.7.

[14] = tested on: Penicillium notatum; experiment: as above; assay type: cell-based; conditions: Penicillium chrysogenum, 72 h, three days at 25° C., pH 5.7, read-out: Minimum Inhibitory Concentration
Protocol: as §4, §5, §6, §3, §7

[15] = tested on: Botrytis cinerea; experiment: as above; assay type: cell-based; conditions: 72 h, three days at 25° C., pH 5.7, read-out: Minimum Inhibitory Concentration
Protocol: as §4, §5, §6, §3, §7

[16] = tested on: Aspergillus fumigatus; experiment: as above; assay type: cell-based; conditions: 72 h, three days at 25° C., pH 5.7, read-out: Minimum Inhibitory Concentration
Protocol: as §4, §5, §6, §3, §7

[17] = tested on: Colletotrichum phomoides; experiment: as above; assay type: cell-based; conditions: 72 h, three days at 25° C., pH 5.7, read-out: Minimum Inhibitory Concentration
Protocol: as §4, §5, §6, §3, §7

[18] = tested on: Fusarium oxysporum cubense; experiment: as above; assay type: cell-based; conditions: 72 h, three days at 25° C., pH 5.7, read-out: Minimum Inhibitory Concentration
Protocol: as §4, §5, §6, §3, §7

[19] = tested on: Chaetomium globosum; experiment: as above; assay type: cell-based; conditions: 72 h, three days at 25° C., pH 5.7, read-out: Minimum Inhibitory Concentration
Protocol: as §4, §5, §6, §3, §7

[20] = tested on: Rhodotorula glutinis; experiment: as above; assay type: cell-based; conditions: 72 h, three days at 25° C., pH 5.7, read-out: Minimum Inhibitory Concentration
Protocol: as §4, §5, §6, §3, §7

[21] = tested on: Aspergillus terreus; experiment: as above; assay type: cell-based; conditions: 72 h, three days at 25° C., pH 5.7, read-out: Minimum Inhibitory Concentration
Protocol: as §4, §5, §6, §3, §7

[22] = tested on: Saccharomyces pastorianus; experiment: as above; assay type: cell-based; conditions: 72 h, three days at 25° C., pH 5.7, read-out: Minimum Inhibitory Concentration
Protocol: as §4, §5, §6, §3, §7

[23] = tested on: human skin; experiment: Human Repeated Insult Patch Test, induction series (irritation); conditions: in vivo
Description: The following protocol was followed in testing each compound.
Two-hundred subjects were employed in each investigation.

[24] = tested on: human skin; conditions: prior art; cited from earlier work
[25] = tested on: human skin; conditions: in vivo
Description: Two-hundred subjects were employed in each investigation. The repeated insult technique was used in the patch test. A different group of subjects were utilized for each evaluation.
The technique used for the patch test called for a series of 9 induction patches of each test material to be placed on each of the subjects. The series was followed two weeks later by a single "challenge" patch of each test material to detect skin sensitization.
The series of nine induction patches was applied on Monday, Wednesday and Thursday and allowed to contact the skin for 24 hours, after which time they were removed and the skin sites graded for irritation. Thursday's patches were placed immediately after removal and grading of Wednesday's applications. After the ninth induction patches had been placed, a non-patching period of 2 weeks elapsed before the challenge patches were applied to detect sensitization reactions. For this 24-hour patch, a new skin site was used. This site was invariably chosen adjacent to an induction site; i.e., one where repeated applications had been made during the series of nine induction patches. The challenge applications were graded at 24 and 72 hours after application.
The skin applications for each material were made using oval-shaped adhesive patches (1" × 11/4") with circular gauze centers. The gauze centers were coated with approximately 0.03 ml. of the respective test material just prior to application.
The scoring criteria used for skin irritation reactions and in evaluating the sensitization evidenced on the challenge application follows:
Four separate formulations of each compound were tested along with two formulations of parabens.
A reading of 5 or more on the 8-point scale was deemed to be indicative of the development of skin sensitization to the test compound.

[26] = tested on: Escherichia coli; experiment: in vitro agar plate determination (Table VII); assay type: cell-based; conditions: agar plates at 10, 25 and 50 mcg. per ml., 24 hours, read-out: Minimum Inhibitory Concentration
Protocol: (§8) The antimicrobial activities of […] (Compound G) were determined concurrently with 5-bromo-2-methyl-5-nitro-1,3-dioxane (Compound C) and 5-bromo-5-nitro-1,3-dioxane (Compound B) against the same six organisms shown in Table II. […] The tests were in vitro determinations utilizing agar plates containing the active compound at 10, 25 and 50 mcg. per ml. of agar. The organisms, at concentrations of 10^6 organisms per milliliter, were streaked on the solidified agar. The plates were incubated for 24 hours and the presence or absence of growth noted. The minimum inhibitory concentration (MIC) was determined as the lowest active compound concentration in the agar where no growth occurred.

[27] = tested on: Aspergillus niger; experiment: in vitro agar plate determination (Table VII); assay type: cell-based; conditions: agar plates at 10, 25 and 50 mcg. per ml., 24 hours, read-out: Minimum Inhibitory Concentration
Protocol: as §8

[28] = tested on: Streptococcus faecalis; experiment: in vitro agar plate determination (Table VII); assay type: cell-based; conditions: Enterococcus faecalis; agar plates at 10, 25 and 50 mcg. per ml., 24 hours; read-out: Minimum Inhibitory Concentration
Protocol: as §8

[29] = tested on: Pseudomonas aeruginosa; experiment: in vitro agar plate determination (Table VII); assay type: cell-based; conditions: agar plates at 10, 25 and 50 mcg. per ml., 24 hours, read-out: Minimum Inhibitory Concentration
Protocol: as §8

[30] = tested on: Staphylococcus aureus; experiment: in vitro agar plate determination (Table VII); assay type: cell-based; conditions: agar plates at 10, 25 and 50 mcg. per ml., 24 hours, read-out: Minimum Inhibitory Concentration
Protocol: as §8

[31] = tested on: Candida albicans; experiment: in vitro agar plate determination (Table VII); assay type: cell-based; conditions: agar plates at 10, 25 and 50 mcg. per ml., 24 hours, read-out: Minimum Inhibitory Concentration
Protocol: as §8

[32] = chemical stability towards pH / alkali; assay type: physicochemical; conditions: pH 5-9

## O=[N+]([O-])C(Br)(CO)CO [Compound A, 2-bromo-2-nitropropane-1,3-diol]
[1]
  chemical stability towards alkali: chemically unstable towards alkali
[2]
  MIC: 6.25 µg/mL (≈ 31.3 µM)
[3]
  MIC: > 50 µg/mL
[4]
  MIC: 12.5 µg/mL (≈ 62.5 µM)
[5]
  MIC: 6.25 µg/mL (≈ 31.3 µM)
[6]
  MIC: 12.5 µg/mL (≈ 62.5 µM)
[7]
  MIC: > 50 µg/mL
[8]
  MIC: 12.5 µg/mL (≈ 62.5 µM)
[9]
  MIC: 25 µg/mL (≈ 125 µM)
[10]
  MIC: 12.5 µg/mL (≈ 62.5 µM)
[11]
  MIC: 25 µg/mL (≈ 125 µM)
[12]
  MIC: 6.25 µg/mL (≈ 31.3 µM)
[13]
  MIC: 50 µg/mL (≈ 250 µM)
[14]
  MIC: 100 µg/mL (≈ 500 µM)
[15]
  MIC: 25 µg/mL (≈ 125 µM)
[16]
  MIC: < 6.25 µg/mL
[17]
  MIC: > 100 µg/mL
[18]
  MIC: 25 µg/mL (≈ 125 µM)
[19]
  MIC: < 6.25 µg/mL
[20]
  MIC: 100 µg/mL (≈ 500 µM)
[21]
  MIC: 25 µg/mL (≈ 125 µM)
[22]
  MIC: > 100 µg/mL

## O=[N+]([O-])C1(Br)COCOC1 [Compound B, 5-bromo-5-nitro-1,3-dioxane, reference compound]
[1]
  chemical stability towards alkali: does possess chemical stability towards alkali
[23]
  irritation readings compared with the 2-methyl derivative: more severe
[24]
  irritation and sensitization in human subjects: induces irritation and sensitization in a significant number of human subjects
[25]
  sensitizing effect: marked sensitizing effect
  subjects evaluated as being sensitive on the challenge test: 11 subjects
[26]
  MIC: < 10 µg/mL
[27]
  MIC: 50 µg/mL (≈ 236 µM)
[28]
  MIC: < 10 µg/mL
[29]
  MIC: 25 µg/mL (≈ 118 µM)
[30]
  MIC: 25 µg/mL (≈ 118 µM)
[31]
  MIC: 25 µg/mL (≈ 118 µM)
[2]
  MIC: 6.25 µg/mL (≈ 29.5 µM)
[3]
  MIC: 25 µg/mL (≈ 118 µM)
[4]
  MIC: 12.5 µg/mL (≈ 59 µM)
[5]
  MIC: 12.5 µg/mL (≈ 59 µM)
[6]
  MIC: 12.5 µg/mL (≈ 59 µM)
[7]
  MIC: 12.5 µg/mL (≈ 59 µM)
[8]
  MIC: 25 µg/mL (≈ 118 µM)
[9]
  MIC: 25 µg/mL (≈ 118 µM)
[10]
  MIC: 25 µg/mL (≈ 118 µM)
[11]
  MIC: 25 µg/mL (≈ 118 µM)
[12]
  MIC: 6.25 µg/mL (≈ 29.5 µM)
[13]
  MIC: 50 µg/mL (≈ 236 µM)
[14]
  MIC: 25 µg/mL (≈ 118 µM)
[15]
  MIC: 50 µg/mL (≈ 236 µM)
[16]
  MIC: < 6.25 µg/mL
[17]
  MIC: 100 µg/mL (≈ 472 µM)
[18]
  MIC: < 6.25 µg/mL
[19]
  MIC: < 6.25 µg/mL
[20]
  MIC: 50 µg/mL (≈ 236 µM)
[21]
  MIC: 25 µg/mL (≈ 118 µM)
[22]
  MIC: 100 µg/mL (≈ 472 µM)

## CCC1OCC(Br)([N+](=O)[O-])CO1 (centres unmarked) [Compound D, 5-bromo-2-ethyl-5-nitro-1,3-dioxane]
[32]
  chemical stability at pH: chemically stable at pH's from 5-9
[2]
  MIC: 12.5 µg/mL (≈ 52.1 µM)
[3]
  MIC: 12.5 µg/mL (≈ 52.1 µM)
[4]
  MIC: 12.5 µg/mL (≈ 52.1 µM)
[5]
  MIC: 25 µg/mL (≈ 104 µM)
[6]
  MIC: 12.5 µg/mL (≈ 52.1 µM)
[7]
  MIC: 6.25 µg/mL (≈ 26 µM)
[8]
  MIC: 25 µg/mL (≈ 104 µM)
[9]
  MIC: 25 µg/mL (≈ 104 µM)
[10]
  MIC: 50 µg/mL (≈ 208 µM)
[11]
  MIC: 25 µg/mL (≈ 104 µM)
